Measured values from article PMC3692398 (Biochemical pharmacology, 2013).
Where two headings read alike, the source gives them in different places.

Key:
h5-HT1A receptor [1] = target: T1, h5-HT1A receptor (Homo sapiens, UniProt P08908); assay: [3H]8-OH-DPAT binding, HEK-h5-HT1A; conditions: read-out: Inhibition of radioligand binding Ki ± sem, h5-HT1A [3H]8OH-DPAT
T1 sequence (P08908 1-422): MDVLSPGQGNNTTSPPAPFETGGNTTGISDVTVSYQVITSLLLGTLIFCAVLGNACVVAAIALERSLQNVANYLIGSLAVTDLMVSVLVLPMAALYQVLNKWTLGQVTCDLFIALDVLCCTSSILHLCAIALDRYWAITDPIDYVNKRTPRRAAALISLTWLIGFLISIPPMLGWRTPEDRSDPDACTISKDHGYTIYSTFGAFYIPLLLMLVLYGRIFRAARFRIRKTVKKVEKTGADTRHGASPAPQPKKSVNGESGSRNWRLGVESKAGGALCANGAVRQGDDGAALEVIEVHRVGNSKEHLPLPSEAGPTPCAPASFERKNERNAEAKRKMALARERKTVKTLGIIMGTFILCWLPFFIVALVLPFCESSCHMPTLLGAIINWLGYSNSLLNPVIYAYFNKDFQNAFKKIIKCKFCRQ

hDAT [2] = target: T2, hDAT (Homo sapiens, UniProt Q01959); assay: Inhibition of [125I]RTI-55 binding, HEK-hDAT membranes; conditions: read-out: Inhibition of [125I]RTI-55 binding Ki ± sem, hDAT; HEK-hDAT membranes
human DA D1 receptor = human DA D1 receptor (Homo sapiens, UniProt P21728); assay: [3H]SCH23390 binding, LhD1 cells; conditions: test drugs up to the maximal concentration tested (10 µM)
hNET [3] = target: T3, hNET (Homo sapiens, UniProt P23975); assay: biochemical; type: binding; conditions: read-out: Inhibition of [125I]RTI-55 binding Ki ± sem, hNET
hSERT [4] = target: T4, hSERT (Homo sapiens, UniProt P31645); assay: Superfusion release of preloaded [3H]5-HT from HEK-hSERT cells; type: cell-based; conditions: for EC50: read-out: Drug-induced release of [3H]neurotransmitter EC50 ± sem, hSERT [3H]5-HT, superfusion, AUC
hVMAT2 [5] = target: T5, hVMAT2 (Homo sapiens, UniProt Q05940); assay: Inhibition of [3H]5-HT uptake, HEK-hVMAT2 membrane preparation; type: biochemical; conditions: read-out: Inhibition of [3H]5-HT uptake IC50 ± sem, hVMAT2; 40 nM [3H]5-HT, 2 mM MgATP
h5-HT2C receptor [6] = target: T6, h5-HT2C receptor (Homo sapiens, UniProt P28335); type: cell-based
T6 sequence (P28335 33-458): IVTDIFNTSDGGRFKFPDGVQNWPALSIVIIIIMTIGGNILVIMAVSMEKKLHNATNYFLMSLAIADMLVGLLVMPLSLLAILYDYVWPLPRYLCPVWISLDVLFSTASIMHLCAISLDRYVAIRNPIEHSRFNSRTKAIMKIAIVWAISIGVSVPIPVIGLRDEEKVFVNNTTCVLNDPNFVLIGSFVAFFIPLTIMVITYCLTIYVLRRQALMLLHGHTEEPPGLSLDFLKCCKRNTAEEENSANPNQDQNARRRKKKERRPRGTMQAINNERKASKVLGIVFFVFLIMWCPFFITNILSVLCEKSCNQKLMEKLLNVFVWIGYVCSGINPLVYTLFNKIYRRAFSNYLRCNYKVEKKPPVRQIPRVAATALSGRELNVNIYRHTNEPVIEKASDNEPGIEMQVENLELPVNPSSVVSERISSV

hDAT [7] = target: T2, hDAT; assay: Inhibition of [3H]DA uptake, intact HEK-hDAT cells; type: cell-based; conditions: for IC50: read-out: Inhibition of [3H]neurotransmitter uptake IC50 ± sem, hDAT [3H]DA, 20 nM [3H]DA, intact cells
hNET [8] = target: T3, hNET; assay: Superfusion release of preloaded [3H]NE from HEK-hNET cells; type: cell-based; conditions: for EC50: read-out: Drug-induced release of [3H]neurotransmitter EC50 ± sem, hNET [3H]NE, superfusion, AUC; for % maximum release ± sem, hNET [3H]NE: relative to maximal AUC induced by METH (0.3 or 1 µM)
human DA D3 receptor = human DA D3 receptor (Homo sapiens, UniProt P35462); assay: [3H]YM-09151-2 binding, CHOp-D3 cells; conditions: test drugs up to 10 µM; words give concentration range, 'low' = low nanomolar
hSERT [9] = target: T4, hSERT; assay: Inhibition of [3H]5-HT uptake, intact HEK-hSERT cells; type: cell-based; conditions: for IC50: read-out: Inhibition of [3H]neurotransmitter uptake IC50 ± sem, hSERT [3H]5-HT, 20 nM [3H]5-HT, intact cells
human DA D2 receptor = human DA D2 receptor (Homo sapiens, UniProt P14416); type: binding; conditions: test drugs up to the maximal concentration tested (10 µM)
hVMAT2 [10] = target: T5, hVMAT2; assay: Superfusion release of preloaded [3H]NE from HEK-hVMAT2 cells; type: cell-based; conditions: for EC50: read-out: Drug-induced release of [3H]NE EC50 ± sem, hVMAT2, superfusion
h5-HT2A receptor [11] = target: T7, h5-HT2A receptor (Homo sapiens, UniProt P28223); assay: [125I]DOI binding, HEK-h5-HT2A; conditions: read-out: Inhibition of radioligand binding Ki ± sem, h5-HT2A [125I]DOI
hNET [12] = target: T3, hNET; assay: cell-based; type: cell-based; conditions: for IC50: read-out: Inhibition of [3H]neurotransmitter uptake IC50 ± sem, hNET [3H]NE
hVMAT2 [13] = target: T5, hVMAT2; assay: Inhibition of [3H]DHTB binding, HEK-hVMAT2 membranes; conditions: read-out: Inhibition of [3H]DHTB binding Ki ± sem, hVMAT2
h5-HT2A receptor [14] = target: T7, h5-HT2A receptor; assay: Inhibition of 5-HT-stimulated IP-1 formation; type: cell-based; conditions: 100 nM 5-HT; for h5-HT2A Inhibition of 5-HT-stimulated IP-1 formation % maximum inhibition ± sem: normalized to maximal inhibition by ketanserin (10 µM); for IC50: read-out: h5-HT2A Inhibition of 5-HT-stimulated IP-1 formation IC50 ± sem
hSigma1 receptor = hSigma1 receptor (Homo sapiens, UniProt Q99720); assay: [3H]; type: binding; conditions: read-out: Inhibition of [3H]pentazocine binding Ki ± sem, hSigma1
h5-HT1A receptor [15] = target: T1, h5-HT1A receptor; assay: Stimulation of [35S]GTPγS binding, HEK-h5-HT1A membranes; type: biochemical; conditions: for h5-HT1A Stimulation of [35S]GTPγS binding % maximum stimulation ± sem: normalized to the maximal stimulation by 5-HT; for EC50: read-out: h5-HT1A Stimulation of [35S]GTPγS binding EC50 ± sem
human D4.4 receptor = target: T8, human D4.4 receptor (Homo sapiens, UniProt P21917); type: binding; conditions: test drugs up to 10 µM; words give concentration range, 'low' = low nanomolar
T8 sequence (P21917 1-419): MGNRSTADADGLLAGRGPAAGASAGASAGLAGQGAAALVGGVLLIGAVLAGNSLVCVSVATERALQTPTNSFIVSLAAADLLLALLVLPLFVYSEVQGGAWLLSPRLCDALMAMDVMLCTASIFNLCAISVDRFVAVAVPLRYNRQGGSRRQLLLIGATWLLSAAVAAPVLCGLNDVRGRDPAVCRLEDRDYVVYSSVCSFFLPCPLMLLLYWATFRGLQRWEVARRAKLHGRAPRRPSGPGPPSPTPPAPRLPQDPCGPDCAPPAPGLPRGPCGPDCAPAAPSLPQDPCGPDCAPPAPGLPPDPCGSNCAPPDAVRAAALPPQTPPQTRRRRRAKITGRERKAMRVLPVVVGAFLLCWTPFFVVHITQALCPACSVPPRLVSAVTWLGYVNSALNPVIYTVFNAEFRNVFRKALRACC

h5-HT2C receptor [16] = target: T6, h5-HT2C receptor; assay: Inhibition of 5-HT-stimulated IP-1 formation; type: cell-based; conditions: 100 nM 5-HT; normalized to maximal inhibition by SB242084 (1 µM)
hDAT [17] = target: T2, hDAT; assay: Superfusion release of preloaded [3H]DA from HEK-hDAT cells; type: cell-based; conditions: for EC50: read-out: Drug-induced release of [3H]neurotransmitter EC50 ± sem, hDAT [3H]DA, superfusion, AUC
h5-HT2C receptor [18] = target: T6, h5-HT2C receptor; assay: biochemical; type: binding; conditions: read-out: Inhibition of radioligand binding Ki ± sem, h5-HT2C [125I]DOI

T2 sequence (Q01959 whole entry): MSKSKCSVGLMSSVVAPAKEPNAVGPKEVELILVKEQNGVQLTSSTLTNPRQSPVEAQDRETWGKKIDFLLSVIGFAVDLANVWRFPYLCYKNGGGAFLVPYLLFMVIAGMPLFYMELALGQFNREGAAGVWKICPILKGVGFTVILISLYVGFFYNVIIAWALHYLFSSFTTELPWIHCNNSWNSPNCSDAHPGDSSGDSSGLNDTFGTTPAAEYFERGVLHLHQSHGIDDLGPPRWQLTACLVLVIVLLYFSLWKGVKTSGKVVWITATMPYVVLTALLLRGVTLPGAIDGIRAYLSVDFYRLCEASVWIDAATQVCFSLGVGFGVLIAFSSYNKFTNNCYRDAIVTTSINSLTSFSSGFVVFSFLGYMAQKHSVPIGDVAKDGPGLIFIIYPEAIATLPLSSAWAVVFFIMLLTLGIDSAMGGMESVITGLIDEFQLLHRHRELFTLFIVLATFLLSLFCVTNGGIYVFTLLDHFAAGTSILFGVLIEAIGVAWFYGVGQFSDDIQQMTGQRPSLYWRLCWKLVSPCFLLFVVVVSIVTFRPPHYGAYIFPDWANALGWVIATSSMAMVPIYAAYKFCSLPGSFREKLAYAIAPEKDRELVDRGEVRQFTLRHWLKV
T7 sequence (P28223 whole entry): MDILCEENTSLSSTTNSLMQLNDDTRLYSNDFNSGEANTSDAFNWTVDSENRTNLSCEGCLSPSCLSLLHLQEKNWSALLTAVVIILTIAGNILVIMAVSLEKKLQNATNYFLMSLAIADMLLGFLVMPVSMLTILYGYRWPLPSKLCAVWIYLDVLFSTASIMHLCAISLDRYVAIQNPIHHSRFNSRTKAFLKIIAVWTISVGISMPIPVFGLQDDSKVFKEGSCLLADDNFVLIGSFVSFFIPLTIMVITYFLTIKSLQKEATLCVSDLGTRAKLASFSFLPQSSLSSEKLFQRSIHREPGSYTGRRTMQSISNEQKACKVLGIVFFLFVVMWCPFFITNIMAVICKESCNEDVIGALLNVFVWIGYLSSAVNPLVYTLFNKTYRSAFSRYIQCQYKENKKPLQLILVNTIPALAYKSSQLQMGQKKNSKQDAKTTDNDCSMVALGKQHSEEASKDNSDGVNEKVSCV
T5 sequence (Q05940 whole entry): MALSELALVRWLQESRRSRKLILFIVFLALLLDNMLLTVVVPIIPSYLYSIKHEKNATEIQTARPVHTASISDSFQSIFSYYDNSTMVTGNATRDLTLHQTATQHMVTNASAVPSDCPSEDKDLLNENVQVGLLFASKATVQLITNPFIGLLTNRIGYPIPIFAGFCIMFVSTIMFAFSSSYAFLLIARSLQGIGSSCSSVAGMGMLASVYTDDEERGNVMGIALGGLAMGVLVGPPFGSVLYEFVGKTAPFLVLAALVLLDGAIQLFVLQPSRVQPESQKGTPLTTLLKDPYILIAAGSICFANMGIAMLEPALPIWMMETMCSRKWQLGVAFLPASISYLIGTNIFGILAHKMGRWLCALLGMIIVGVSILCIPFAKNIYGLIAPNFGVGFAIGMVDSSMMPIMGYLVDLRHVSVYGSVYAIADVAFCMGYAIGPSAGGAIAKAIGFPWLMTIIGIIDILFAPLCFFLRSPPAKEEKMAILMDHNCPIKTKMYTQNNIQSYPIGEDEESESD
T4 sequence (P31645 whole entry, the tested form may be a part): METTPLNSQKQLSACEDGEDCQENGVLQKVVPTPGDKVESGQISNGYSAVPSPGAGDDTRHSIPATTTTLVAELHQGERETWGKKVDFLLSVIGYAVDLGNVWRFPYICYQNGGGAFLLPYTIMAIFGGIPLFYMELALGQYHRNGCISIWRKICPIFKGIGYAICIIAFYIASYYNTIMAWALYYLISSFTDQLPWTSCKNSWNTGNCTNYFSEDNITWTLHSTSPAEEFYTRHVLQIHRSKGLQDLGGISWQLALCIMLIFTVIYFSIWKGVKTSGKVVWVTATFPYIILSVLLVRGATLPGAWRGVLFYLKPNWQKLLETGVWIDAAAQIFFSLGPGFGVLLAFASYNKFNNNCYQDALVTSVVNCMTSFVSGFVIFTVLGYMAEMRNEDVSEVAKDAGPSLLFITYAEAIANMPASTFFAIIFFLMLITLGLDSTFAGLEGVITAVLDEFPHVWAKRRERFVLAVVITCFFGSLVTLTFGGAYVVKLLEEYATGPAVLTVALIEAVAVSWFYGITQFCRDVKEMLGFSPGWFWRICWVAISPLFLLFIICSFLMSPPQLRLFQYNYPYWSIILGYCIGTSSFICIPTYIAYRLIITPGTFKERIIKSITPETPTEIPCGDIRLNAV
T3 sequence (P23975 whole entry, the tested form may be a part): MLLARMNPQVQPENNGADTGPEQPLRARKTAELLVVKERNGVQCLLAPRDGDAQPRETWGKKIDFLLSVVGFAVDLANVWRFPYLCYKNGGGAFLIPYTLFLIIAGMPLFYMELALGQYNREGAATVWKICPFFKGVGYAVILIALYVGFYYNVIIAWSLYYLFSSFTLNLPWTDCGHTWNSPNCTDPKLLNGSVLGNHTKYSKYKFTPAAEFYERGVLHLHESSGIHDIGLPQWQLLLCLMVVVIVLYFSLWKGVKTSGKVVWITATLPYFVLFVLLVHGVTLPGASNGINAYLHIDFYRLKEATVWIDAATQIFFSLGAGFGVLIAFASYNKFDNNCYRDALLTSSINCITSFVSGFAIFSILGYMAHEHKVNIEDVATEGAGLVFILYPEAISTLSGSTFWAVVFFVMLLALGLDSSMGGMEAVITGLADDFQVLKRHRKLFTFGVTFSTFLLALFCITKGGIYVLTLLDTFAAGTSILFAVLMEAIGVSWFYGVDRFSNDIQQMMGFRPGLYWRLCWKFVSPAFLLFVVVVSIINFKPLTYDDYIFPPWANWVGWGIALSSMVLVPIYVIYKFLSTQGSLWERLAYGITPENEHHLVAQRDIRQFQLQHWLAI
Sequence of human DA D3 receptor (P35462 whole entry): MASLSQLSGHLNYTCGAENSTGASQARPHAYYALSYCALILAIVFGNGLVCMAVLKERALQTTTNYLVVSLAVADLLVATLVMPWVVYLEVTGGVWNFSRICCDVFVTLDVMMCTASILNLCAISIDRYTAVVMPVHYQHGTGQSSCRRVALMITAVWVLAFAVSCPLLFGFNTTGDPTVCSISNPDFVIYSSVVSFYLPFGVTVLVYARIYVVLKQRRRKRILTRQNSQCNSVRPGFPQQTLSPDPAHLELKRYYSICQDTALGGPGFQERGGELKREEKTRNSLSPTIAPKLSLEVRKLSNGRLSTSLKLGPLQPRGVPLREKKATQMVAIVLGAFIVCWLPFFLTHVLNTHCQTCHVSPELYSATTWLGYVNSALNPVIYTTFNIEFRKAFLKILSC
Sequence of human DA D1 receptor (P21728 whole entry): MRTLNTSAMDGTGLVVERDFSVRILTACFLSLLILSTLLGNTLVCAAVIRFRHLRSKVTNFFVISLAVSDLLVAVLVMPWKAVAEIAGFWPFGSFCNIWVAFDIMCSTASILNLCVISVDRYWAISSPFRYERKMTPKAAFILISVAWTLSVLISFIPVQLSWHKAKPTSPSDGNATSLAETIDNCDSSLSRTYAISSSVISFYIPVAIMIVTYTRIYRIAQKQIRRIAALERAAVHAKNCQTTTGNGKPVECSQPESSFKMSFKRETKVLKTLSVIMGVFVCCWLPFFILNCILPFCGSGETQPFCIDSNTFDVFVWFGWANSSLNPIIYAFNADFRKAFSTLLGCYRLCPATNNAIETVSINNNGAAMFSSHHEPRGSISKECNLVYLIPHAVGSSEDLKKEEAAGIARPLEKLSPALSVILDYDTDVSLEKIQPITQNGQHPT
Sequence of hSigma1 receptor (Q99720 whole entry): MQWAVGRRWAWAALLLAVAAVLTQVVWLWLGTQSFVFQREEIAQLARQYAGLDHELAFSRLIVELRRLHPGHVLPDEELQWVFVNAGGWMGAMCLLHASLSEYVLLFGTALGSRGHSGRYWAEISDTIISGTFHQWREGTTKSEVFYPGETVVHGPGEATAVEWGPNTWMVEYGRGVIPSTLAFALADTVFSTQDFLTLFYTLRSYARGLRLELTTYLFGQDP
Sequence of human DA D2 receptor (P14416 whole entry, the tested form may be a part): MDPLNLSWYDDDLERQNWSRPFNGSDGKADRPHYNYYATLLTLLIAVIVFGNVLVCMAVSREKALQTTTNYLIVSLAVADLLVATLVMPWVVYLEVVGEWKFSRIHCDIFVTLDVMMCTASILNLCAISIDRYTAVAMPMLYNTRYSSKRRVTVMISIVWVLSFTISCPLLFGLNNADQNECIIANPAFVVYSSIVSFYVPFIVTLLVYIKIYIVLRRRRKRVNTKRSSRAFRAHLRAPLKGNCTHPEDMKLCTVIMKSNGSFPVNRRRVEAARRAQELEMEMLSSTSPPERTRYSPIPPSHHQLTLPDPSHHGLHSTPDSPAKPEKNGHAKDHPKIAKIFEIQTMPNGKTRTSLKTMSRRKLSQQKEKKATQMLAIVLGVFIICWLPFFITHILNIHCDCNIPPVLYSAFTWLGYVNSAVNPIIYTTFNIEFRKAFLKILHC

Row | SMILES | Ki (h5-HT1A receptor [1]) [µM] | Ki (hDAT [2]) [µM] | affinity for the [3H]SCH23390 binding site, DA D1 receptor (human DA D1 receptor) | EC50 (hSERT [4]) [µM] | IC50 (hVMAT2 [5]) [µM] | IC50 (hDAT [7]) [µM] | EC50 (hNET [8]) [µM] | % maximum release ± sem, hNET [3H]NE (hNET [8]) [%] | affinity for the [3H]YM-09151-2 binding site, DA D3 receptor (human DA D3 receptor) | IC50 (hSERT [9]) [µM] | affinity for the [3H]YM-09151-2 binding site, DA D2 receptor (human DA D2 receptor) | EC50 (hVMAT2 [10]) [µM] | Ki (h5-HT2A receptor [11]) [µM] | h5-HT2A Inhibition of 5-HT-stimulated IP-1 formation % maximum inhibition ± sem (h5-HT2A receptor [14]) [%] | IC50 (h5-HT2A receptor [14]) [µM] | Ki (hSigma1 receptor) [µM] | h5-HT1A Stimulation of [35S]GTPγS binding % maximum stimulation ± sem (h5-HT1A receptor [15]) [%] | EC50 (h5-HT1A receptor [15]) [µM] | affinity for the [3H]YM-09151-2 binding site, DA D4.4 receptor (human D4.4 receptor) | h5-HT2C Inhibition of 5-HT-stimulated IP-1 formation % maximum inhibition ± sem (h5-HT2C receptor [16]) [%] | other results
1 | CNC(C)Cc1ccc2c(c1)OCO2 (stereo not shown) [MDMA, 3,4-methylenedioxymethylamphetamine, reference compound] | 14.1 ± 2.4 | 22 ± 5.1 | no measurable affinity | 1.04 ± 0.27 | 5.8 ± 1.4 | 0.201 ± 0.047 | 0.57 ± 0.19 | 116 ± 11 | no measurable affinity | 0.109 ± 0.017 | no measurable affinity | 114 ± 40 | 8.3 ± 1.2 | 96.3 ± 3.8 | 189 ± 52 | 19.4 ± 6.3 | 65.8 ± 8.5 | 35 ± 14 | no measurable affinity | 9 ± 12 | Ki (hNET [3]): 30.9 µM; % maximum release ± sem, hSERT [3H]5-HT (hSERT [4]): 74 ±12%; h5-HT2C agonist activity, inositol monophosphate (h5-HT2C receptor [6]): full agonist with low micromolar potency; IC50 (hNET [12]): 0.0242 µM; Ki (hVMAT2 [13]): 661 ± 58 µM; EC50 (hDAT [17]): 4.8 ± 2.3 µM; % maximum release ± sem, hDAT [3H]DA (hDAT [17]; relative to maximal AUC induced by METH (1 or 10 µM)): 104 ± 14%
2 | CNC(C)C(=O)c1ccccc1 (stereo not shown) [Methcathinone, methcathinone, reference compound] | 29.1 ± 3.6 | 3.3 ± 1.1 | no measurable affinity | > 100 | 117 ± 57 | 0.144 ± 0.032 | 0.228 ± 0.066 | 149 ± 42 | no measurable affinity | 13.5 ± 2.9 | no measurable affinity | 11.6 ± 7.3 | 29.2 ± 3.3 | 99.63 ± 0.37 | 40 ± 9.5 | 117 ± 40 | 52.8 ± 6.2 | 49 ± 21 | no measurable affinity | 17.5 ± 4.0 | Ki (hNET [3]; HEK-hNET membranes): 4.48 ± 0.49 µM; % maximum release ± sem, hSERT [3H]5-HT (hSERT [4]; relative to maximal AUC induced by PCA (10 µM)): 21.1 ± 9.8%; h5-HT2C agonist activity, inositol monophosphate (h5-HT2C receptor [6]; data not shown): partial agonists with midmicromolar potencies; ratio of binding Ki to uptake IC50, hDAT (hDAT [7]; [125I]RTI-55 Ki / [3H]DA uptake IC50): 23; Ki (h5-HT2C receptor [18]): 16 ± 4.2 µM; ratio of binding Ki to uptake IC50, hSERT (hSERT [9]; [125I]RTI-55 Ki / [3H]5-HT uptake IC50): > 7.4; Release of [3H]NE % maximum release ± sem or range, hVMAT2 (hVMAT2 [10]): 42 ± 10%; ratio of binding Ki to uptake IC50, hNET (hNET [12]; [125I]RTI-55 Ki / [3H]NE uptake IC50): 144; IC50 (hNET [12]; 20 nM [3H]NE, intact cells): 0.0311 ± 0.0051 µM; % maximum release ± sem, hDAT [3H]DA (hDAT [17]): 83.3 ± 4.9%; EC50 (hDAT [17]): 3.57 ± 0.68 µM
